# According to PubChem BioAssay (NCI):
#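 Following 48 hours of exposure in 96-well plates, responses at five concentrations were used to interpolate endpoints linearly. At the GI50, growth is halved. TGI is the concentration that stops growth completely.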
# Columns and labels:
# Test in all cases: NCI anticancer screen, dose series, 48 h
# [1] = test system: UACC-257 melanoma
# [2] = test system: KM12 colon
# [3] = test system: SR leukemia
# [4] = test system: RXF 393 renal
# [5] = test system: NCI-H23 lung
# [6] = test system: OVCAR-8 ovarian
# [7] = test system: SNB-19 CNS
# [8] = test system: A549 NSCLC
# [9] = test system: HL-60(TB) leukemia
# [10] = test system: COLO 205 colon
# [11] = test system: BT-549 breast
# [12] = test system: SF-539 CNS
# [13] = test system: MDA-MB-231 breast
# [14] = test system: DU-145 prostate
# [15] = test system: SK-MEL-28 melanoma
# [16] = test system: MOLT-4 leukemia
# [17] = test system: M14 melanoma
# [18] = test system: 786-0 renal
# [19] = test system: MALME-3M melanoma
# [20] = test system: MCF7 breast
# [21] = test system: CAKI-1 renal
# [22] = test system: SW-620 colon
# [23] = test system: UO-31 renal
# [24] = test system: OVCAR-3 ovarian
# [25] = test system: SF-295 CNS
# [26] = test system: HOP-62 NSCLC
# [27] = test system: SF-268 CNS
# [28] = test system: T-47D breast
# [29] = test system: SNB-75 CNS
# [30] = test system: NCI-H522 lung
# [31] = test system: HCT-15 colon
# [32] = test system: CCRF-CEM leukemia
# [33] = test system: RPMI-8226 leukemia
# [34] = test system: SK-MEL-2 melanoma
# [35] = test system: HCC-2998 colon
# [36] = test system: IGROV1 ovarian
# [37] = test system: UACC-62 melanoma
# [38] = test system: NCI/ADR-RES ovarian
# [39] = test system: ACHN renal
# [40] = test system: K-562 leukemia
# [41] = test system: OVCAR-5 ovarian
# [42] = test system: SN12C renal
# [43] = test system: SK-MEL-5 melanoma
# [44] = test system: MDA-MB-435
# [45] = test system: OVCAR-4 ovarian
# [46] = test system: HOP-92 NSCLC
# [47] = test system: NCI-H460 lung
# [48] = test system: U251 CNS
# [49] = test system: SK-OV-3 ovarian
# [50] = test system: HCT-116 colon
# [51] = test system: A498 renal
# [52] = test system: PC-3 prostate
# [53] = test system: HT29 colon
# [54] = test system: LOX IMVI melanoma
# [55] = test system: NCI-H226 lung
smiles,measurement,setting,value
CCCCCN(CCCCC)CCC[C@@H](C)[C@H]1CC[C@H]2[C@@H]3[C@H](OCCCN)C[C@@H]4C[C@H](OCCCN)CC[C@]4(C)[C@H]3C[C@H](OCCCN)[C@]12C,GI50,[1],13.5 µM
same,TGI,[1],28.6 µM
same,GI50,[2],3.59 µM
same,TGI,[2],17 µM
same,GI50,[3],2.38 µM
same,TGI,[3],9.28 µM
same,GI50,[4],11.9 µM
same,TGI,[4],32.7 µM
same,GI50,[5],4.36 µM
same,TGI,[5],20.6 µM
same,GI50,[6],7.39 µM
same,TGI,[6],22.9 µM
same,GI50,[7],7.9 µM
same,TGI,[7],24.3 µM
same,GI50,[8],5 µM
same,TGI,[8],21.9 µM
same,GI50,[9],2.14 µM
same,TGI,[9],5.81 µM
same,GI50,[10],5.89 µM
same,TGI,[10],22.8 µM
same,GI50,[11],3.27 µM
same,TGI,[11],8.37 µM
same,GI50,[12],1.94 µM
same,TGI,[12],4.3 µM
same,GI50,[13],4.41 µM
same,TGI,[13],19.7 µM
same,GI50,[14],11.1 µM
same,TGI,[14],23.6 µM
same,GI50,[15],2.46 µM
same,TGI,[15],12.5 µM
same,GI50,[16],3.85 µM
same,TGI,[16],14.4 µM
same,GI50,[17],6.03 µM
same,TGI,[17],22.5 µM
same,GI50,[18],8.26 µM
same,TGI,[18],24 µM
same,GI50,[19],4.8 µM
same,TGI,[19],17.7 µM
same,GI50,[20],14.5 µM
same,TGI,[20],34.7 µM
same,GI50,[21],40.7 µM
same,TGI,[21],> 100 µM
same,GI50,[22],4.79 µM
same,TGI,[22],20.2 µM
same,GI50,[23],14.1 µM
same,TGI,[23],51.7 µM
same,GI50,[24],17 µM
same,TGI,[24],36.1 µM
same,GI50,[25],3.03 µM
same,TGI,[25],21.8 µM
same,GI50,[26],5.23 µM
same,TGI,[26],23.5 µM
same,GI50,[27],13.6 µM
same,TGI,[27],31.5 µM
same,GI50,[28],10 µM
same,TGI,[28],30.3 µM
same,GI50,[29],7.52 µM
same,TGI,[29],22.8 µM
same,GI50,[30],2.98 µM
same,TGI,[30],12.3 µM
same,GI50,[31],15.4 µM
same,TGI,[31],> 100 µM
same,GI50,[32],4.47 µM
same,TGI,[32],20.5 µM
same,GI50,[33],1.84 µM
same,TGI,[33],4.71 µM
same,GI50,[34],15.1 µM
same,TGI,[34],31.3 µM
same,GI50,[35],7.98 µM
same,TGI,[35],24.9 µM
same,GI50,[36],2.72 µM
same,TGI,[36],15 µM
same,GI50,[37],1.56 µM
same,TGI,[37],6.41 µM
same,GI50,[38],12.1 µM
same,TGI,[38],37.7 µM
same,GI50,[39],8.8 µM
same,TGI,[39],35 µM
same,GI50,[40],1.84 µM
same,TGI,[40],4.33 µM
same,GI50,[41],10.3 µM
same,TGI,[41],23.4 µM
same,GI50,[42],4.33 µM
same,TGI,[42],18.8 µM
same,GI50,[43],3.85 µM
same,TGI,[43],16.2 µM
same,GI50,[44],1.98 µM
same,TGI,[44],4.93 µM
same,GI50,[45],14.3 µM
same,TGI,[45],32.6 µM
same,GI50,[46],0.68 µM
same,TGI,[46],6.45 µM
same,GI50,[47],2.79 µM
same,TGI,[47],17.3 µM
same,GI50,[48],4.53 µM
same,TGI,[48],18.4 µM
same,GI50,[49],15.9 µM
same,TGI,[49],34.9 µM
same,GI50,[50],2.4 µM
same,TGI,[50],14.7 µM
same,GI50,[51],10.2 µM
same,TGI,[51],60.7 µM
same,GI50,[52],11.6 µM
same,TGI,[52],24.8 µM
same,GI50,[53],2.65 µM
same,TGI,[53],15.3 µM
same,GI50,[54],2.16 µM
same,TGI,[54],10.2 µM
same,GI50,[55],5.11 µM
same,TGI,[55],24.8 µM
